Where two headings read alike, the source gives them in different places. Numbered stars: 1 amine (or outer) side, 2 acyl side, 3 side chain; on linkers, the order of the positions; unused ones are H or OH. Square brackets hold non-standard residues; d marks the D form. Side chains are listed from the residue outwards. Peptide text beside a SMILES is read from it. * marks the point of attachment. C20 diacid = O=C(O)CCCCCCCCCCCCCCCCCCC(=O)*; γGlu = O=C(O)[C@H](CCC(=O)[*:2])N[*:1]; AEEA = NCCOCCOCC(=O)O; Aib = CC(C)(N)C(=O)O
Columns and labels:
SCTR = SCTR (Homo sapiens, UniProt P47872); assay: hSCTR potency, cAMP accumulation in CHO-K1 cells stably overexpressing hSCTR; type: cell-based; set-up: alternatively Euroscreen ES-712-AF; FAST-0161L; host or cells: CHO-K1; conditions: cAMP accumulation, CHO-K1 cells overexpressing hSCTR
Summary of the method: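 In this Gs cAMP assay, stably transfected CHO-K1 hSCTR cells were stimulated at room temperature for 30 min in IBMX-containing buffer. Time-resolved FRET gave the signal. Replicates were increased when the top concentration changed or EC50 values differed 5-fold.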

[1] = Fibril formation of crude library peptides (Thioflavin T); type: physicochemical; set-up: key: average ThT fluorescence emission at 480 nm (ex 450 nm), raw units; conditions: Physical stability of peptides
Method: (§1) Peptides were dissolved in buffers (50 mM sodium acetate at pH 4.0, or 50 mM sodium phosphate at pH 7.0) to 267 μM and incubated for 1-2 hours at room temperature. The samples were then divided into two replicates of 80 μl in a black 384 well plate (μ-clear, Greiner Bio-One) and mixed with Thioflavin T (ThT) to a final concentration of 4 μM. The plate was centrifuged for 2 min at 2000 rpm to remove air bubbles, sealed, and placed in a plate reader (CLARIOstar, BMG). Firstly, turbidity of the samples was measured as the absorbance at 600 nm. Secondly, the plate reader temperature was set to 40° C. and the fluorescence was measured every 10 min for 72 hours by exciting the ThT at 450 nm and measuring the emission at 480 nm. Samples were stressed by shaking the plate at 700 rpm (linear) for five minutes before every measurement, and fibril formation was determined as the average emission for each sample.

[2] = Turbidity of crude library peptides (absorbance at 600 nm); type: physicochemical; conditions: Physical stability of peptides
Method: as §1

GLP1R = GLP1R (Homo sapiens, UniProt P43220); assay: hGLP1R potency, cAMP accumulation in CHO-K1 cells stably overexpressing hGLP1R; type: cell-based; set-up: host or cells: CHO-K1; conditions: for Selectivity: SCTR EC50/GLP1R EC50 ratio; for EC50: cAMP accumulation, CHO-K1 cells overexpressing hGLP1R
Summary of the method: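 In the presence of 0.5 mM IBMX, compounds stimulated the cells for 30 minutes at room temperature. Accumulated cAMP was then detected by TR-FRET, with EC50 values fitted by variable-slope nonlinear regression.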

[3] = read-out: pEC50 hSCTR (converted)
[4] = read-out: pEC50 hGLPR1 (converted)

SCTR, sequence (P47872 23-440): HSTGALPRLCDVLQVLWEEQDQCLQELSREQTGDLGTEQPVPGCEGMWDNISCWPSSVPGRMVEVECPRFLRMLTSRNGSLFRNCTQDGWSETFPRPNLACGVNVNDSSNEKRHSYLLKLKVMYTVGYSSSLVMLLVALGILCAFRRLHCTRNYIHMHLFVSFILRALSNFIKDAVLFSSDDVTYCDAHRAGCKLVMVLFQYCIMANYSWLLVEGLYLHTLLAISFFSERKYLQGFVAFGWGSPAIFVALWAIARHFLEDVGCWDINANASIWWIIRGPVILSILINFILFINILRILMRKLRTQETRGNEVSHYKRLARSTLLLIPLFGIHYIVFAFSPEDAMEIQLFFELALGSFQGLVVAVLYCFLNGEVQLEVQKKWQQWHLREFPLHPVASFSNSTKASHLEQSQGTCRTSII
GLP1R, sequence (P43220 24-463): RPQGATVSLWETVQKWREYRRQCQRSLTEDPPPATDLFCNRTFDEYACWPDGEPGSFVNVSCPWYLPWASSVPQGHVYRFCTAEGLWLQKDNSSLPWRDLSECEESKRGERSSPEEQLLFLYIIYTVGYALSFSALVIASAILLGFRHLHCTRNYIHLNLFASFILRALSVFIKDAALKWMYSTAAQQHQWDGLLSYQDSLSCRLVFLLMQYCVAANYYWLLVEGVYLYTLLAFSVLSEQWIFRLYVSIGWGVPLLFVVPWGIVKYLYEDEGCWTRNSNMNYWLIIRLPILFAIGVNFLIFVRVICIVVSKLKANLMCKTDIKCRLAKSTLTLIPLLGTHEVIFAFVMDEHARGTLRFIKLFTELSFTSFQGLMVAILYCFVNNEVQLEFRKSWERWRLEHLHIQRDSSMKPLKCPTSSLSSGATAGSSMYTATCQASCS

Row | EC50 (SCTR; [3]) | Fibril formation [1] | Turbidity (pH 7) [2] | Selectivity (GLP1R) | EC50 (GLP1R; [4]) | EC50 (SCTR; read-out: hSCTR pEC50 (converted)) | EC50 (GLP1R; read-out: hGLP1R pEC50 (converted)) | SCTR EC50/GLP1R EC50 ratio (GLP1R; selectivity for hGLP1R over hSCTR, cAMP accumulation in CHO-K1 cells) | Structure (SMILES)
1 | 316 nM | 16121 | 0.08 | 11130 | 0.0316 nM |  |  |  | CC(C)C[C@H](NC(=O)[C@H](Cc1ccccc1)NC(=O)[C@H](CCCNC(=N)N)NC(=O)[C@H](CCC(N)=O)NC(=O)[C@@H](NC(=O)[C@H](C)NC(=O)[C@H](C)NC(=O)C(C)(C)NC(=O)[C@H](CCC(=O)O)NC(=O)[C@H](CCCCNC(=O)COCCOCCNC(=O)COCCOCCNC(=O)CC[C@H](NC(=O)CCCCCCCCCCCCCCCCCCC(=O)O)C(=O)O)NC(=O)[C@H](CC(C)C)NC(=O)[C@H](Cc1ccccc1)NC(=O)[C@H](CO)NC(=O)[C@@H](NC(=O)[C@H](CC(=O)O)NC(=O)[C@H](CO)NC(=O)[C@@H](NC(=O)[C@H](Cc1ccccc1)NC(=O)[C@@H](NC(=O)CNC(=O)[C@H](CCC(=O)O)NC(=O)C(C)(C)NC(=O)[C@@H](N)Cc1c[nH]cn1)[C@@H](C)O)[C@@H](C)O)C(C)C)[C@@H](C)O)C(=O)N[C@@H](CCC(=O)O)C(=O)N[C@@H](Cc1c[nH]cn1)C(=O)N[C@@H](CC(C)C)C(=O)N[C@H](C(N)=O)C(C)C [compound 13] (H-H[Aib]EGTFTSDVSFLK([AEEA-AEEA-γGlu-C20 diacid])E[Aib]AATQRFLEHLV-NH2)
2 | 398 nM | 12180 | 0.08 | 21943 | 0.02 nM |  |  |  | CC(C)C[C@H](NC(=O)[C@H](Cc1ccccc1)NC(=O)[C@H](CCCNC(=N)N)NC(=O)[C@H](CCC(N)=O)NC(=O)[C@H](CCC(N)=O)NC(=O)[C@H](C)NC(=O)[C@H](C)NC(=O)C(C)(C)NC(=O)[C@H](CCC(=O)O)NC(=O)[C@H](CCCCNC(=O)COCCOCCNC(=O)COCCOCCNC(=O)CC[C@H](NC(=O)CCCCCCCCCCCCCCCCCCC(=O)O)C(=O)O)NC(=O)[C@H](CC(C)C)NC(=O)[C@@H](NC(=O)[C@H](CO)NC(=O)[C@@H](NC(=O)[C@H](CC(=O)O)NC(=O)[C@H](CO)NC(=O)[C@@H](NC(=O)[C@H](Cc1ccccc1)NC(=O)[C@@H](NC(=O)CNC(=O)[C@H](CCC(=O)O)NC(=O)C(C)(C)NC(=O)[C@@H](N)Cc1c[nH]cn1)[C@@H](C)O)[C@@H](C)O)C(C)C)C(C)C)C(=O)N[C@@H](CCC(=O)O)C(=O)N[C@@H](Cc1c[nH]cn1)C(=O)N[C@@H](CC(C)C)C(=O)N[C@H](C(N)=O)C(C)C [compound 40] (H-H[Aib]EGTFTSDVSVLK([AEEA-AEEA-γGlu-C20 diacid])E[Aib]AAQQRFLEHLV-NH2)
3 |  | 5426 | 0.08 |  |  | 25100 nM | 0.794 nM | 34730 | CC(C)C[C@H](NC(=O)[C@H](Cc1ccccc1)NC(=O)[C@H](CCCNC(=N)N)NC(=O)[C@H](CCC(N)=O)NC(=O)[C@H](CC(C)C)NC(=O)C(C)(C)NC(=O)[C@H](C)NC(=O)[C@H](CCC(=O)O)NC(=O)[C@H](CCC(=O)O)NC(=O)[C@H](CCCCNC(=O)COCCOCCNC(=O)COCCOCCNC(=O)CC[C@H](NC(=O)CCCCCCCCCCCCCCCCCCC(=O)O)C(=O)O)NC(=O)[C@H](CC(C)C)NC(=O)[C@H](Cc1ccc(O)cc1)NC(=O)[C@H](CO)NC(=O)[C@@H](NC(=O)[C@H](CC(=O)O)NC(=O)[C@H](CO)NC(=O)[C@@H](NC(=O)[C@H](Cc1ccccc1)NC(=O)[C@@H](NC(=O)CNC(=O)[C@H](Cc1ccc(O)cc1)NC(=O)C(C)(C)NC(=O)[C@@H](N)Cc1c[nH]cn1)[C@@H](C)O)[C@@H](C)O)C(C)C)C(=O)N[C@@H](CCC(=O)O)C(=O)N[C@@H](Cc1c[nH]cn1)C(=O)N[C@@H](CC(C)C)C(=O)N[C@H](C(N)=O)C(C)C [compound 159] (H-H[Aib]YGTFTSDVSYLK([AEEA-AEEA-γGlu-C20 diacid])EEA[Aib]LQRFLEHLV-NH2)

From patent US20260201008A1, “SECRETIN-DERIVED GLP1R SELECTIVE AGONISTS” (GUBRA A/S, priority 2023, published 2026)
